Legend:
[1] = test system: OCI-AML3 cells; test: In vitro proliferation (spheroid, Incucyte), menin-MLL inhibitor with DHODH inhibitor, OCI-AML3; type: cell-based, human; settings: 8 days
Text: Spheroid-like growth was monitored in real-time by non-invasive live-cell imaging using the 4× objective of the Incucyte ZOOM live cell imaging system (Essen BioScience), and acquiring images on Day 8. […] The DMSO content was normalized to 0.3% and the percent confluence from the DMSO well was used as baseline response. […] Data from 2 independent experiments from MOLM-13 or 3 independent experiments from OCI-AML3 cells were pooled and analyzed.

[2] = test system: MOLM-13 tumors; test: Efficacy of menin-MLL inhibitor in combination with DHODH inhibitor in MOLM-13 (KMT2A-r) IV model; type: in vivo; settings: MOLM-13 IV, NSG mice
Text: 15) In Vivo Efficacy of Menin-MLL Inhibitor in Combination with DHODH Inhibitor in Disseminated Models of Human Acute Myeloid Leukemia (MOLM-13 and OCI-AML) 15A) Efficacy of Menin-MLL Inhibitor in Combination with DHODH Inhibitor in MOLM-13 (KMT2A-r) IV Model in NSG Mice
Day 0 is the day of tumor cell implantation and study initiation. In the MOLM-13 efficacy study, mice bearing IV MOLM-13 xenograft tumors were randomly assigned to treatment groups 5 days post-tumor cell engraftment.

[3] = test system: OCI-AML3 tumors; test: Efficacy of menin-MLL inhibitor in combination with DHODH inhibitor in OCI-AML3 (NPM1c) IV model; type: in vivo; settings: NSG mice
Text: 15B) Efficacy of Menin-MLL Inhibitor in Combination with DHODH Inhibitor in OCI-AML3 (NPM1c) IV Model in NSG Mice In the OCI-AML3 efficacy study, mice bearing IV OCI-AML3 xenograft tumors were randomly assigned to treatment groups 5 days post-tumor cell engraftment.

[4] = test system: OCI-AML3 cells; test: Proliferation assay (spheroid), OCI-AML3; type: cell-based, human; settings: 8 days
Protocol: The anti-proliferative effect of menin/MLL protein/protein interaction inhibitor test compounds was assessed inhuman leukemia cell lines. The cell line MOLM-14 harbors a MLL translocation and expresses the MLL fusion protein MLL-AF9, respectively, as well as the wildtype protein from the second allele. OCI-AML3 cells that carry the NPM1c gene mutation were also tested. […] KO-52 was used as a control cell line containing two MLL (KMT2A) wildtype alleles in order to exclude compounds that display general cytotoxic effects.
KO-52 and OCI-AML3 cell lines were propagated in alpha-MEM (Sigma Aldrich) supplemented with 20% heat-inactivated fetal bovine serum (HyClone), 2 mM L-glutamine (Sigma Aldrich) and 50 μg/ml gentamycin (Gibco).
In order to assess the anti-proliferative effects, 200 MOLM-14 cells, 200 OCI-AML3 cells or 300 KO-52 cells were seeded in 200 μl media per well in 96-well round bottom, ultra-low attachment plates (Costar, catalogue number 7007). Cell seeding numbers were chosen based on growth curves to ensure linear growth throughout the experiment. Test compounds were added at different concentrations and the DMSO content was normalized to 0.3%. Cells were incubated for 8 days at 37° C. and 5% CO2. Spheroid like growth was measured in real-time by live-cell imaging (IncuCyteZOOM, Essenbio, 4× objective) acquiring images at day 8. Confluence (%) as a measure of spheroid size was determined using an integrated analysis tool.
In order to determine the effect of the test compounds over time, the confluence in each well as a measure of spheroid size, was calculated. Confluence of the highest dose of a reference compound was used as baseline for the LC (Low control) and the confluence of DMSO treated cells was used as 0% cytotoxicity (High Control, HC).
HC=High Control: Mean confluence (%) (DMSO treated cells);
Dose-response equation was used for the plot of % Effect vs Log10 compound concentration with a variable slope and fixing the maximum to 100% and the minimum to 0%. 2b) MEIS1 mRNA Expression Assay

[5] = test system: iCell Cardiomyocytes2 (hSC-CMs); test: Ca2+-fluorescence assay in human pluripotent stem cell-derived cardiomyocytes (CTCM human); type: cell-based; parameters: key to Hazard Scoring Color @ 0.1 μM / Hazard Scoring Color @ 0.2 μM / Hazard Scoring Color @ 0.5 μM / Hazard Scoring Color @ 1 μM / Hazard Scoring Color @ 2.5 μM / Hazard Scoring Color @ 5 μM / Hazard Scoring Color @ 0.3 μM / Hazard Scoring Color @ 3 μM / Hazard Scoring Color @ 10 μM / Hazard Scoring Color @ 30 μM: Green: No concern; Yellow: Low concern; Red: High concern; Black: Very high concern due to arrhythmic events
Protocol: 7) Cardio-Electrophysiological Effects of the Testing Compounds in Synchronously Beating Human Pluripotent Stem Cell-Derived Cardiomyocytes (hSC-CMs) Using a Ca^2+-Fluorescence Assay (CTCM Human)
Compounds were tested in the 96-well plates.
Compounds were tested at 0.1 μM, 0.2 μM, 0.5 μM, 1 μM, 2.5 μM and 5 μM (n=4 per dose) on Cor.4U®-Cardiomyocytes or on iCell® Cardionyocytes2.
Alternatively, compounds were tested at 0.1 μM, 0.3 μM; 1 μM, 3 μM, 10 μM and 30 μM (n=4 per dose) mostly on iCell® Cardiomyocytes2.
Vehicle control: Dimethylsulfoxide (DMSO). The solutions of the compound in DMSO or its solvent (final concentration of 0.1% DMSO; n=8).
Tested compounds were dissolved in DMSO at 1000-fold the intended concentrations. A compound “mother-plate” was made, containing the test compounds and positive and negative controls at 1000-fold the final concentrations. At the experiment day, these stock solutions were diluted with Tyrode (Sigma), supplemented with 10 mM HEPES (Gibco), to 2-fold the intended concentration (in round bottom compound plates). Final DMSO concentration in test solutions and vehicle control was 0.1%.
hSC-CMs (Cor.4U® Cardiomyocytes) were obtained from CDI (Ncardia, Germany). Cells are pre-plated and seeded in fibronectin-coated 96-well plates at a density suited to form a monolayer and maintained in culture in a stage incubator (37° C., 5% CO2), according to the instructions of the cell provider.
Second line hSC derived cardiomyocyte called iCell® Cardiomyocytes2 were purchased from FUJIFILM Cellular Dynamics (USA). The experiments with test drugs are carried out 5 to 7 days after plating the cells onto the plate to have a living, beating monolayer of hiPSC-derived cardiomyocytes. The beating monolayer in 96-well-plates are normally taken from 2 Vials of frozen iCell® Cardiomyocytes2 (≈5 million cells/vial), which will be plated onto three 96-well plates (≈50K/well).
At least one hour before the start of the experiments the normal cell medium was replaced with Tyrode solution with Calcium dye (see below).
Cal 520 dye (AAT Bioquest) was dissolved in 11 ml of Tyrode supplemented with 10 mM HEPES and warmed up to 37 C before adding to the cells.
35 μl cell culture medium was removed from each well and replaced with 35 μl of pre-warmed Cal 520 dye solution and cell plate was incubated for 45 min at 37° C./5% CO2. Cells were incubated for 5 min at 37° C.
Spontaneous electrical activity is recorded, using Cal520™ (AAT Bioquest) calcium fluorescence-dye signalling. This dye integrates the total intracellular calcium activity over the whole well. A bottle of Ca1520 dye (50 μg, MW: 1103/mol) is dissolved with 50 μl DMSO as a stock solution of 0.9 mM. 50 μL of the stock solution of the dye was added to 10 ml Tryodes solution to have dye concentration of 4.5 μM. Subsequently, 35 μl of this dye solution was added into each well, to have a final dye concentration of 1.58 μM. The current dye protocol on this CTCM human assay was established recently (Ivan Kopljar et al, Journal of Pharmacological and toxicological methods 2018. 91: 80-86; Lu et al., Tox Sci 2019. 170 (2): 345-356).
Fluorescent signals (Ca^2+ transient morphology) were measured using the Functional Drug Screen System (FDSS/μCell; Hamamatsu, Japan) and the recordings were subsequently analyzed off-line, using appropriate software e.g., Notocord.
The cell plate was loaded into the FDSS/μCell for a test run: Ca^2+ transients were measured for 4 minutes to check for synchronous beating of the cardiomyocytes in each well. All 96 wells were measured simultaneously (sampling interval: 0.06 s, short exposure time: 10 ms; excitation wavelength 480 nm; emission wavelength 540 nm; FDSS/μCell warmed to 37° C.).
During the compound addition step, 100 μl of the respective double-concentrated test solutions was pipetted into each well simultaneously.
Data were analyzed off-line using appropriate software e.g., Notocord-Hem (version 4.3). […]

[6] = Compound 22 0.0125 mg/kg (so in the source) PO daily 28 days
[7] = Compound 22 0.063 mg/kg PO daily 28 days
[8] = Compound 22 0.125 mg/kg PO daily 28 days
[9] = Compound 22 0.25 mg/kg PO daily 28 days
[10] = efficacious dose in mouse xenograft models of 30 mg/kg, (mouse, human), estimated

SMILES	Growth inhibition, monotherapy (in words) [1]	% ILS [2, 6]	Median Survival [2, 6]	% ILS [2, 7]	Median Survival [2, 7]	% ILS [3, 8]	Median Survival [3, 8]	% ILS [3, 9]	Median Survival [3, 9]	IC50 [4]	Hazard Scoring Color @ 0.1 μM ([5]; 0.1 μM, 30 min, iCell Cardiomyocytes2 (Table 12))	Hazard Scoring Color @ 0.3 μM ([5]; 0.3 μM, 30 min, iCell Cardiomyocytes2 (Table 12))	Hazard Scoring Color @ 1 μM ([5]; 1 μM, 30 min, iCell Cardiomyocytes2 (Table 12))	Hazard Scoring Color @ 3 μM ([5]; 3 μM, 30 min, iCell Cardiomyocytes2 (Table 12))	Hazard Scoring Color @ 10 μM ([5]; 10 μM, 30 min, iCell Cardiomyocytes2 (Table 12))	Hazard Scoring Color @ 30 μM ([5]; 30 μM, 30 min, iCell Cardiomyocytes2 (Table 12))	Margin CTCM human 10 μM vs free Cmax [5, 10]	Margin CTCM human 30 μM vs free Cmax [5, 10]
CCn1c(CO)nn(-c2cc3c(C(C)C)cn(-c4ccccc4C)c(=O)c3cc2F)c1=O [Compound 22, 6-(4-Ethyl-3-(hydroxymethyl)-5-oxo-4,5-dihydro-1H-1,2,4-triazol-1-yl)-7-fluoro-4-isopropyl-2-(o-tolyl)isoquinolin-1(2H)-one]	potent growth inhibition	*125%	40.5	*111%	38	*60%	41.5	*65%	43	–	–	–	–	–	–	–	–	–
CCN(C(=O)c1cc(F)ccc1Oc1nncnc1N1CCC2(C1)CN([C@H](CCCN(C)CCOC)C(C)C)C2)C(C)C [Compound A1]	–	–	–	–	–	–	–	–	–	80 nM	Green	Green	Green	Green	Green	yellow	> 16	> 45
